Experimental data taken from US6638935B2, “Heteroary1 derivatives and their use as medicaments” (Zentaris AG, priority 2000, dated 2003).

COc1cc(OC)cc(N2CCN(C(=O)c3ccncc3)CC2)c1 [Example 13, 1-(3,5-Dimethoxyphenyl)-4-(4-pyridyl-carbonyl)piperazine]
melting point: 94 to 96 °C
